Test results taken from US10434049B2, “Methods of producing compounds that stimulate hair regrowth, topical formulations, and methods of use” (Joventis S.A., priority 2013, dated 2019).

Legend:
Assay type in all cases: in vivo, human
[1] = system: collagen in sun damaged skin; test: Cosmetic collagen regeneration clinical trial, high-resolution ultrasound scanner images of skin; settings: ultrasound images before and after treatment, sun damaged skin (FIG. 12A/12B)
Description: In yet further aspects of the inventive subject matter, cosmetic collagen regeneration effects of Formula (I) were assessed in a clinical trial run by Sempervivum, a medical esthetics company. Twenty-four volunteers (22 women and 2 men) participated in this study. Participants were on average 59 years old (Mean (M)=59 years, Standard Deviation (SD)=12 years). In this case, the age of the participants is 59 years with an average deviation of 12 years. Participants had no history of cosmetic surgery and stated to have normal eating and sleeping patterns. High-resolution ultrasound scanner images of collagen in sun damaged skin are shown in FIG. 12A (before treatment) and FIG. 12B (after treatment). […] It also appears that more interconnected collagen fibers are present in the dermis of the skin, and spots representing collagen seem to be more connected and closer to the epidermal layer.

[2] = system: hair growth; test: Before/after photographs of individual subjects (FIG. 2, FIG. 11)
Text: The subject in FIG. 2A starts out with a complete bald spot. […] Before treatment with Formula (I), the subject shown in FIG. 2C has dark, balding hair.

[3] = system: hair growth; test: Six-month study of twenty volunteers, monthly self-reported hair growth questionnaires; settings: for participants who noticed new hair growth: lotion applied to scalp at least once a day
Text: In a systematic study of twenty volunteers, including 8 women, study participants self-reported hair regrowth metrics by answering questionnaires at the end of each month of treatment with Formula (I) over the course of six months. The mean age of participants was 54 years old (SD=11 years). Participants had no history of hair implants and had normal eating and sleeping patterns. Participants first read and signed an informed consent form in which they were informed about the hair regeneration product, a lotion comprising Formula (I). The information about Formula (I) included that Formula (I) was designed to increase hair growth, that it was based on natural compounds, and that use of the product would not lead to harmful effects. Participants received explicit instructions on how to use the product, were asked to apply the product at least once a day on their scalp, and were asked not to use any other hair growth or regeneration products for the 6-month duration of the study. […] During this session photos were taken to measure and count any increases in hair regrowth, and participants answered questionnaires that probed the effects using Formula (I). Questionnaires comprised 14 yes or no questions based on Barber's 1998 the hair growth questionnaire. Barber et al., A hair growth questionnaire for use in the evaluation of therapeutic effects in men, J. DERMATOLOGICAL TREATMENT, Vol. 9(3), pp. 181-86 (1998). The questions included: • Did you notice new hair growth during the past month? • Did you notice new hair growth since the start of treatment? • Did you notice any new hair loss during the past month? • Did you notice any new hair loss since the start of the treatment? • Did you notice more hair loss than before since the start of the treatment? • Did you notice that your hairs felt thicker during the past month? • Did you notice that your hairs felt thicker since the start of the treatment? • Did you notice that your hairs felt more healthy during the past month? • Did you notice that your hairs felt more healthy since the start of the treatment? • The tenth and eleventh questions asked whether hairs felt less fragile during the past month and since the start of the treatment. • The final questions asked whether participants had noticed their hair color increasing and whether it became less grey/white during the past month and since the start of the treatment.

[4] = system: burn; test: Burned hands of a lab technician, one hand treated, other untreated; settings: treated for one month; untreated hand developed calluses
Description: Along these lines, a lab technician who burned both hands, and hair regrowth at the site of the burn was assessed. One hand was treated for one month with a composition comprising Formula (I), and the other hand was left untreated. […] The untreated hand developed calluses instead.

[5] = system: hair growth; test: Six-month study, hair growth by digital analysis of photographs of a chosen spot
Text: In a systematic study of twenty volunteers, including 8 women, study participants self-reported hair regrowth metrics by answering questionnaires at the end of each month of treatment with Formula (I) over the course of six months. The mean age of participants was 54 years old (SD=11 years). Participants had no history of hair implants and had normal eating and sleeping patterns. Participants first read and signed an informed consent form in which they were informed about the hair regeneration product, a lotion comprising Formula (I). The information about Formula (I) included that Formula (I) was designed to increase hair growth, that it was based on natural compounds, and that use of the product would not lead to harmful effects. Participants received explicit instructions on how to use the product, were asked to apply the product at least once a day on their scalp, and were asked not to use any other hair growth or regeneration products for the 6-month duration of the study. […] During this session photos were taken to measure and count any increases in hair regrowth, and participants answered questionnaires that probed the effects using Formula (I). […] Hair growth was measured by counting and estimating the total amount of thick/thin hairs on the specific spot, based on digital analysis of each photograph.

[6] = over the course of treatment, questionnaires (FIG. 10)

Structure (SMILES): CC1=CC2(C(C)C)CC(=C1)C2(C)C (centres unmarked) [Formula (I), 3,6,6-trimethyl-5-(propan-2-yl)bicyclo[3.1.1]hepta-1,3-diene]
- collagen in skin after treatment [1]: significant increases in collagen
- hair regrowth at alopecia site, subject who lost all body hair after trauma ([2]; after 4 months of treatment (FIG. 11A/11B)): hair growth at the alopecia site
- hair regrowth, subject with complete bald spot ([2]; after 6 months of treatment (FIG. 2A/2B)): white hair has grown into the bald spot
- hair regrowth, subject with dark, balding hair ([2]; after 6 months of treatment (FIG. 2C/2D)): dark hair has begun to regrow
- participants who noticed new hair growth ([3]; after 1 month of treatment, self-reported): 47%
- participants who noticed new hair growth ([3]; after 6 months of treatment, self-reported): 94%
- participants who noticed an increase in hair loss ([3]; at some point during treatment, self-reported): 20%
- overall effect on hair growth ([3]; conclusion from questionnaires and photo analyses, 6-month study): highly effective in stimulating hair growth
- participants who noticed an increase in healthy hair, thicker hair and less fragile hair ([3]; during the last month of treatment and since the start of treatment, self-reported (FIG. 5)): 85-92%
- hair color in participants with white/grey hair before treatment ([3]; last month of treatment and since start of treatment, self-reported (FIG. 6)): significant increase in color
- amount of thick hair in participants with thin hair ([3]; over the course of treatment (FIG. 9)): significant increase in the amount of thick hair
- amount of white hair in participants with white/grey hair [3, 6]: increased to a lesser extent
- black hair as percent of total hair in participants with white/grey hair [3, 6]: increase in the percent of total hair that was black
- participants who noticed that some new hairs fell out ([3]; over the whole course of the treatment, self-reported, alopecia patients excluded): 14%
- skin outcome of burned hand [4]: developed new smooth skin
- increase in long fine and thick hairs in balding participants ([5]; after 6 months, photo analysis (FIG. 8)): triple to quadruple overall increases
- hair growth in bald participants, including alopecia patients ([5]; photo analysis, participants initially with no hair at the probed place (FIG. 7)): both fine hairs and more thick hairs suddenly started to grow
